Laboratory results: ChEMBL document CHEMBL1158736, “Cremastrine, a pyrrolizidine alkaloid from Cremastra appendiculata” (J Nat Prod, 2005)

Tests used:
[1] = molecular target: T1, Muscarinic acetylcholine receptor M5 (Homo sapiens, UniProt P08912); assay: Displacement of [3H]NMS from human cloned muscarinic M5 receptor expressed in insect Sf9 cells
T1 sequence (P08912 whole entry): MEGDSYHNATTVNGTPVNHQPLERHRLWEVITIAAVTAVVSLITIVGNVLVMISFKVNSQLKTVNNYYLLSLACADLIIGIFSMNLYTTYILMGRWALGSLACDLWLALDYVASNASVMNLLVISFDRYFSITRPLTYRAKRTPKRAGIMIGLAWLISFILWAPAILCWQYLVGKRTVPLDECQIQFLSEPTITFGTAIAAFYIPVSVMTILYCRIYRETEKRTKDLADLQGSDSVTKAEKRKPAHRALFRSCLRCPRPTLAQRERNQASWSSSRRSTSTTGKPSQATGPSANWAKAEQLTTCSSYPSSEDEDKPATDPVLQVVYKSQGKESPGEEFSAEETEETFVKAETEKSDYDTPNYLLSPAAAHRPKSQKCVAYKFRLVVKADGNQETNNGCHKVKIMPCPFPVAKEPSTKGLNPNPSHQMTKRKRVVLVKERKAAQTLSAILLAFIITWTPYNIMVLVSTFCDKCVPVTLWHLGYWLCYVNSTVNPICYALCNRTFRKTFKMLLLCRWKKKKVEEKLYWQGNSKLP

[2] = molecular target: T2, Muscarinic acetylcholine receptor M2 (Homo sapiens, UniProt P08172); assay: Displacement of [3H]NMS from human cloned muscarinic M2 receptor expressed in insect Sf9 cells
T2 sequence (P08172 whole entry): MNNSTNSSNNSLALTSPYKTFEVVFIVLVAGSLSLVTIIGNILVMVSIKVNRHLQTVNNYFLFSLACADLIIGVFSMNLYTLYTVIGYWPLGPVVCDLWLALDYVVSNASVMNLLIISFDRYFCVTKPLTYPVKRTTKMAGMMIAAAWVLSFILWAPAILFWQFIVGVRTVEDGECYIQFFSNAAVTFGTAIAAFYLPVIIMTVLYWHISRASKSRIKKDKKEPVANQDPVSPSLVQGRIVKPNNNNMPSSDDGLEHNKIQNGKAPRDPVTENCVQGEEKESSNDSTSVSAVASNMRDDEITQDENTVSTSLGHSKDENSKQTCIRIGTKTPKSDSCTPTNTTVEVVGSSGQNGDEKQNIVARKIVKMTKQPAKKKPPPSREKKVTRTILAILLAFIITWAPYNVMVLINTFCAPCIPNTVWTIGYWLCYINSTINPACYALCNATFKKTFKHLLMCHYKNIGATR

[3] = molecular target: Muscarinic acetylcholine receptor M3 (Homo sapiens, UniProt P20309); assay: Displacement of [3H]NMS from human cloned muscarinic M3 receptor expressed in insect Sf9 cells
Sequence of Muscarinic acetylcholine receptor M3 (P20309 whole entry): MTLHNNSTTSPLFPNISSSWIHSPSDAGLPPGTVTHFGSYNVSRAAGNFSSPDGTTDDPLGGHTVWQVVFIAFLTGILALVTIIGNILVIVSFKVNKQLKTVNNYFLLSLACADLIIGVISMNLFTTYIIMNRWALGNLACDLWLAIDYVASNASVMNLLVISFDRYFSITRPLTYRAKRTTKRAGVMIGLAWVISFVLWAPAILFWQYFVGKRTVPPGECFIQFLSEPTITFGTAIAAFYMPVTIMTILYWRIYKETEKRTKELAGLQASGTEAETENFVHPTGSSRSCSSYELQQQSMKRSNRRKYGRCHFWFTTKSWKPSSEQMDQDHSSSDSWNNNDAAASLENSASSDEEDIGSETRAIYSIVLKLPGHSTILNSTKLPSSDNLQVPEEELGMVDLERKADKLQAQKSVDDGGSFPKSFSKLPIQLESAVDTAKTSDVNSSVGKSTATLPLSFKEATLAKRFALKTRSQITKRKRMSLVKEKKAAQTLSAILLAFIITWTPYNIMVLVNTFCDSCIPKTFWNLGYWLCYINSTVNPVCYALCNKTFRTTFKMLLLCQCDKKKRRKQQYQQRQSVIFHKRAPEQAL

[4] = molecular target: T3, Muscarinic acetylcholine receptor M1 (Homo sapiens, UniProt P11229); assay: Displacement of [3H]NMS from human cloned muscarinic M1 receptor expressed in insect Sf9 cells
T3 sequence (P11229 whole entry): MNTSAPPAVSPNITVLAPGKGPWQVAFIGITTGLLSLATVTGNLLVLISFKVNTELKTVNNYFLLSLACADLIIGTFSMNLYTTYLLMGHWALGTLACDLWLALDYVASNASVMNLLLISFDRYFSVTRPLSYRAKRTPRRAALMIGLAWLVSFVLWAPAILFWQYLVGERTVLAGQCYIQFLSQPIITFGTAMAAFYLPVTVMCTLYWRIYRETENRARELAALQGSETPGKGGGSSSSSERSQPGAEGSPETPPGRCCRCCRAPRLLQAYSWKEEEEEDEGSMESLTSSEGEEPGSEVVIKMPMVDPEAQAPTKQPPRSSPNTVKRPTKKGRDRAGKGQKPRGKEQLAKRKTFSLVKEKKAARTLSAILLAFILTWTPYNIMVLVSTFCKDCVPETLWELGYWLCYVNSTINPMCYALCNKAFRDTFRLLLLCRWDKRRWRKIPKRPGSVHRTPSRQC

[5] = molecular target: T4, Muscarinic acetylcholine receptor M4 (Homo sapiens, UniProt P08173); assay: Displacement of [3H]NMS from human cloned muscarinic M4 receptor expressed in insect Sf9 cells
T4 sequence (P08173 whole entry): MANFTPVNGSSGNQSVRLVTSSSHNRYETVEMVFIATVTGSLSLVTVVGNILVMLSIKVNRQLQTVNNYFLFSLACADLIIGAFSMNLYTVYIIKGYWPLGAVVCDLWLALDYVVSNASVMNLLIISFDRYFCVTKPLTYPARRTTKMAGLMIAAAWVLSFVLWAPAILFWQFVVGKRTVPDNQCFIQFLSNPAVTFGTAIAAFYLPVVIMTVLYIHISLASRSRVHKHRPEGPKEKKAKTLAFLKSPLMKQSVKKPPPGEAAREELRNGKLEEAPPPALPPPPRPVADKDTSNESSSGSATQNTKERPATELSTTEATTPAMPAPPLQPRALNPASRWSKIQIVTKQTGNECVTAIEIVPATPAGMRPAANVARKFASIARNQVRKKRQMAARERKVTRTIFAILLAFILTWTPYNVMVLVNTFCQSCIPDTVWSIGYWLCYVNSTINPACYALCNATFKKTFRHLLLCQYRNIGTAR

CC[C@@H](C)[C@@H](O)C(=O)OC[C@H]1CCN2CCC[C@@H]12 [CREMASTRINE]
IC50 [1]: 1.22 µM | IC50 [2]: > 5.52 µM | IC50 [3]: 0.126 µM | IC50 [4]: 0.505 µM | IC50 [5]: 0.498 µM
